Series [1] can be described thus: refractive index (Na D-line) (dimensionless). The note with it: 293.1 K; 101.33 kPa; Liquid; Standard Abbe refractometry.
For series [2] the following is noted: 298.1 K; 101.33 kPa; Liquid; Vibrating tube method.

Numbers after ± are expanded uncertainties.

From the NIST ThermoML archive (doi:10.1016/j.fluid.2009.03.017) come the findings set out here.

Broadly, the refractive index is the speed of light in vacuum divided by its phase velocity in the sample. For orientation: mass density means mass per unit of volume. `C=CC(C)CCC=C(C)C` (centres undefined) [3,7-dimethyl-1,6-octadiene]: the refractive index in series [1] stood at 1.4416 ± 0.0007. Also, in series [2], the mass density is recorded as 766.8 ± 0.2 kg/m3.
For `C1COCCO1` [1,4-dioxane] the same measures were 1.422 ± 0.0007 and 1025.9 ± 0.1 kg/m3.
